Data taken from ChEMBL document CHEMBL1201862, “PubChem BioAssay data set” (2004).
Calls of active or inactive are those of the source.

Legend:
[1] = system: Escherichia coli; experiment: microbe, parasite or virus in culture
[2] = system: Escherichia coli; experiment: microbe, parasite or virus in culture; remark: listed apart in the source
[3] = target: T1, Hexokinase HKDC1 (Homo sapiens, UniProt Q2TB90); experiment: SAR analysis of small molecule inhibitors of hexokinase domain containing I (HKDC1). [Related pubchem assays (depositor defined):AID493160, AID493190]; format: functional
T1 sequence (Q2TB90 whole entry): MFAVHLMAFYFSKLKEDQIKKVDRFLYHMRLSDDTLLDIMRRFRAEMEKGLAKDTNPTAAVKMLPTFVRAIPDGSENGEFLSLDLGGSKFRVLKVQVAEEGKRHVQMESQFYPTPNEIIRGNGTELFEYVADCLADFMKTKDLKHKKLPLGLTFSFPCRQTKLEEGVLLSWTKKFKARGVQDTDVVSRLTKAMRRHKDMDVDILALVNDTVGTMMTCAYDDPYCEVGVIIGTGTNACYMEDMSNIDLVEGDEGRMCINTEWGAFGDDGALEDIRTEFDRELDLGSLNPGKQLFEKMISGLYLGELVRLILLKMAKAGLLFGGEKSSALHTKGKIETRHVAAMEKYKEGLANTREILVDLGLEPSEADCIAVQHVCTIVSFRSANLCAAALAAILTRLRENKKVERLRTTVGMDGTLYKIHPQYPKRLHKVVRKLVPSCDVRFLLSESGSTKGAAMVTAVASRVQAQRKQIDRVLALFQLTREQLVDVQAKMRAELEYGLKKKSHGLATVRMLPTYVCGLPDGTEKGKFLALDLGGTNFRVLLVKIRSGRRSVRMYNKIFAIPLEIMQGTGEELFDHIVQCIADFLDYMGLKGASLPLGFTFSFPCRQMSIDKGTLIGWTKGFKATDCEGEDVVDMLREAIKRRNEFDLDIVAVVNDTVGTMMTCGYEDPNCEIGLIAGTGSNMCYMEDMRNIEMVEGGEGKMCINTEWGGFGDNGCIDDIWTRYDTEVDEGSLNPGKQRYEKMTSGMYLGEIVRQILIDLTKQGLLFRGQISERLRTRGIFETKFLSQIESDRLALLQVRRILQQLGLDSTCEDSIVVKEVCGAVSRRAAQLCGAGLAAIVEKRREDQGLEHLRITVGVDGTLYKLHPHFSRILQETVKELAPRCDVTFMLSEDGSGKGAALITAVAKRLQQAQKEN

[4] = target: T2, Hexokinase-1 (Homo sapiens, UniProt P19367); experiment: SAR analysis of small molecule inhibitors of hexokinase domain containing I (HKDC1) in the hexokinase 1 selectivity assay. [Related pubchem assays (depositor defined):AID493160, AID493190]; format: functional
T2 sequence (P19367 whole entry): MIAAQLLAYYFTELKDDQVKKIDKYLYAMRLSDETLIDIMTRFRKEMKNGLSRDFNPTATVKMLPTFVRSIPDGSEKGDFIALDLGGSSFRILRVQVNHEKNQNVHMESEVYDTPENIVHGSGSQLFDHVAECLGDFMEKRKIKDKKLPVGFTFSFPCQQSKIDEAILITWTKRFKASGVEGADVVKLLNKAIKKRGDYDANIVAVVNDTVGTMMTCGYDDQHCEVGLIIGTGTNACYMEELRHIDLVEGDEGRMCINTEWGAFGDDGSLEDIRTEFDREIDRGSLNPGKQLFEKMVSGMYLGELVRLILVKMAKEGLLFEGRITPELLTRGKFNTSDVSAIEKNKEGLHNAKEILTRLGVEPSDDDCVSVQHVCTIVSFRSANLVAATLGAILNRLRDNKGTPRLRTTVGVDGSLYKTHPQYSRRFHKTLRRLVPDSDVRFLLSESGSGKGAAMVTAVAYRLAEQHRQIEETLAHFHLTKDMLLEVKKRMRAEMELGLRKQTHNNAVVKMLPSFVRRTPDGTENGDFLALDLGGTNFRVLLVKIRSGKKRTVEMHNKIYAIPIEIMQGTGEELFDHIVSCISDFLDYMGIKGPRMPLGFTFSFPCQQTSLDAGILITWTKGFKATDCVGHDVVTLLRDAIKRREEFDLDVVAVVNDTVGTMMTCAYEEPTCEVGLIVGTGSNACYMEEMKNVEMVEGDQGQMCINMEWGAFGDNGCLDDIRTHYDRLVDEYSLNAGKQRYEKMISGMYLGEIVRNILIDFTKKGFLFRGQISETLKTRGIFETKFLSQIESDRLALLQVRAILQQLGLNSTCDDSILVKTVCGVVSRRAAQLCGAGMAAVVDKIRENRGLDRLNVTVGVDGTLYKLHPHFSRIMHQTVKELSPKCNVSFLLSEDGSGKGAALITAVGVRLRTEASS

[5] = inhibitors of cytokine-induced nitrite release, dose response, cell-based, Griess absorbance, INS-1E, dry powder, set 3 (AID 488870); format: functional; settings: Rattus norvegicus
[6] = system: INS1; experiment: protection of INS-1E cells from cytokine death, dose response, ATP luminescence, dry powder (AID 488844); format: functional, cell-based; settings: Rattus norvegicus
[7] = system: INS1; experiment: inhibitors of cytokine-induced nitrite release, dose response, cell-based, Griess absorbance, INS-1E, dry powder, set 2 (AID 488868); format: functional; settings: Rattus norvegicus
[8] = growth suppression of beta-catenin-knockout colon cells, dose response, cell-based, HCT116, human colon tumor (AID 1045); format: functional;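 also: HCT116 colon tumor cells with beta catenin knocked out; cells exposed to compound for 60 hours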
[9] = target: T3, Microphthalmia-associated transcription factor (Homo sapiens, UniProt O75030); experiment: TRPM1 promoter luciferase signal decrease, dose response, MITF inhibitor project, cell-based, SK-MEL-5, cherry-picked, set 3 (AID 493073); format: functional
T3 sequence (O75030 whole entry): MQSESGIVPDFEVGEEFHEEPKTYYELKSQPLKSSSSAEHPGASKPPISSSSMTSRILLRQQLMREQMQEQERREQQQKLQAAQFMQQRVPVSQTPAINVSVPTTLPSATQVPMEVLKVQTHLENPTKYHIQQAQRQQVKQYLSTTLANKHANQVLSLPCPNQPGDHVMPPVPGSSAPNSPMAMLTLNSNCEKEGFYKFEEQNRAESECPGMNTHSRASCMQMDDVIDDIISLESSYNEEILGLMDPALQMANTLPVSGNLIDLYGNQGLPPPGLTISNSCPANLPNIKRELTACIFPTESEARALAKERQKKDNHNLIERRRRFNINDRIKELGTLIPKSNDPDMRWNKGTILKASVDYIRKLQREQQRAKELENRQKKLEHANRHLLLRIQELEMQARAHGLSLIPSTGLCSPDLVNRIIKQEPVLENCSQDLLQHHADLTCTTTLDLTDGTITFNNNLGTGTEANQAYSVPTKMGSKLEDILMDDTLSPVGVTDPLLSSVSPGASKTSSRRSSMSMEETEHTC

[10] = system: A-375; experiment: MITF: Counter assay: A375 proliferation Measured in Cell-Based System Using Plate Reader - 2084-03_Inhibitor_Dose_DryPowder_Activity. [Related pubchem assays (depositor defined):AID488944]; format: functional; settings: Homo sapiens
[11] = system: CHO; experiment: cytotoxicity in TLR9-MyD88 CHO cells, dose response, cytotoxicity control for TLR9-MyD88 binding inhibitor project, cell-based, luminescence (AID 588339); format: functional, hamster; settings: Cricetulus griseus;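 also: CHO cells stably coexpressing TLR9 and MyD88 fusions from primary screen; compound exposure lasted 48 hours before viability readout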
[12] = growth suppression of PTEN-null colon cells, dose response, cell-based, HCT116 PTEN knockout (AID 1047); format: functional;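 also: HCT116 colon tumor cells with PTEN knocked out; cells exposed to compound for 60 hours before readout; potency for loss of cell viability measured by luminescence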
[13] = target: T4, Dual specificity protein phosphatase 6 (Rattus norvegicus, UniProt Q64346); format: functional
T4 sequence (Q64346 whole entry): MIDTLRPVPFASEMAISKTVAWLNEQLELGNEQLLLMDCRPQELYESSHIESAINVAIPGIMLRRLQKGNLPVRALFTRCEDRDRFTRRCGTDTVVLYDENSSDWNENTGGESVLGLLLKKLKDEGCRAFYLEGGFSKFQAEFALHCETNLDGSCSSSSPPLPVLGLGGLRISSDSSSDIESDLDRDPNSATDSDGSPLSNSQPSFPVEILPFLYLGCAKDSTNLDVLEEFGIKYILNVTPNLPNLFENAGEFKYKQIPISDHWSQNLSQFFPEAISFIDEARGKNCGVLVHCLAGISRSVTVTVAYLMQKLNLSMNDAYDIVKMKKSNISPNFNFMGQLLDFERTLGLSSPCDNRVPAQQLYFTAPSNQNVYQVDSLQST

[14] = target: Glyceraldehyde-3-phosphate dehydrogenase (Homo sapiens, UniProt P04406)
[15] = target: T5, Tyrosine-protein phosphatase non-receptor type 7 (Homo sapiens, UniProt P35236); format: functional
T5 sequence (P35236 whole entry): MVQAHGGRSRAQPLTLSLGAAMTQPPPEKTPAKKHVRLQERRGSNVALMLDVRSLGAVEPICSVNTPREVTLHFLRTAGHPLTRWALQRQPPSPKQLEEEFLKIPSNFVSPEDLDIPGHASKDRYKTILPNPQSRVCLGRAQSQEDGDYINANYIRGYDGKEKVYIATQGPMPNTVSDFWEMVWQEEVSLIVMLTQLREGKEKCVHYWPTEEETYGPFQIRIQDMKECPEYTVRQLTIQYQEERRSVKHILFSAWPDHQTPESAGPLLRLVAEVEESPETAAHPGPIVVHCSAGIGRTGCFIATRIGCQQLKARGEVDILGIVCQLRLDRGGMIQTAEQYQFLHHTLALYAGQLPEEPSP

[16] = target: T4, Dual specificity protein phosphatase 6

Glyceraldehyde-3-phosphate dehydrogenase, sequence (P04406 whole entry): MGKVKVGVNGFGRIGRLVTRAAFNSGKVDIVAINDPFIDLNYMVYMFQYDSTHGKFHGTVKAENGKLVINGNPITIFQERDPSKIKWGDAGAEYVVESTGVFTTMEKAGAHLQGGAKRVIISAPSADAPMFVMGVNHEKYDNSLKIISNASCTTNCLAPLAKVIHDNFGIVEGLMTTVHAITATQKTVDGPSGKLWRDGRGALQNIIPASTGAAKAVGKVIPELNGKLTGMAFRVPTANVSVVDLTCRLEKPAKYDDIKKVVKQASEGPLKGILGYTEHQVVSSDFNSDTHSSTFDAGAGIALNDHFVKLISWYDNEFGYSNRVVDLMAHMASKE

In the case of `CCOC(=O)C(NC(C)=O)(Nc1ccc(F)cc1)C(F)(F)F` (stereo not drawn), the AC50 [1] is reported as 36.2 µM (active) and the AC50 [2] is reported as 74.8 µM (active).
In the case of `O=c1c2ccccc2nc(/C=C\c2ccccc2Cl)n1Cc1ccccc1`, the IC50 [3] is reported as > 80 µM (inactive) and the IC50 [4] is reported as > 80 µM (inactive).
For `C[C@@H]1CN([C@@H](C)CO)C(=O)c2cccc(NC(=O)Nc3cccc4ccccc34)c2O[C@H]1CN(C)S(=O)(=O)c1ccc(F)cc1`, the AC50 [5] was 77.2 µM (active), the AC50 [6] was 7.41 µM (active) and the AC50 [7] was 138 µM (active).
For `CCCCN(C)CC(O)Cn1cc(/C=C/C(=O)c2cccs2)c2ccccc21` (stereo not drawn), the EC50 [8] was 10.5 µM (active), the AC50 [9] was 14.3 µM (active) and the AC50 [10] was 40.9 µM (active). The IC50 [11] was 14.9 µM (inactive) and the EC50 [12] was 13.4 µM (active).
For `COc1ccc(-n2c(=O)nc(NCCc3cccc(Cl)c3)[nH]c2=O)cc1`, the IC50 [13] was > 100 µM (inactive), the IC50 [14] was > 100 µM (not active) and the IC50 [15] was > 100 µM (not active). The IC50 [16] was > 100 µM (inactive).
With `O=S(=O)(Nc1cc(Sc2nc[nH]n2)c(O)c2ccccc12)c1ccc(Cl)cc1` the IC50 [3] was 9.86 µM (active) and the IC50 [4] was 65.3 µM (inactive).
